Data published in patent US20030191187A1, “Injectable pharmaceutical composition containing a non-steroidal anti-inflammatory drug and method for preparing the same” (priority 2002, published 2003).
Read-outs that look alike come from different tables or passages of the source.

Legend:
[1] = cited from earlier work
[2] = cited from earlier work; remark: listed apart in the source
[3] = cited from earlier work; remark: listed apart in the source
[4] = cited from earlier work; remark: listed apart in the source
plasma protein = settings: once in the circulation; cited from earlier work
[5] = behaviour of ketorolac tromethamine solutions outside pH 6.0-8.5; assay type: physicochemical
Excerpt: In the present invention, a stable and injectable pharmaceutical composition which contains an acetic acid class of NSAID is described. The pH value of the injectable pharmaceutical composition is maintained at 6.0-8.5, preferably 6.9-7.9. When the pH values of the ketorolac tromethamine solutions are lower than 6, the NSAID precipitates from the solutions.
(4). Measure the pH of the solution in (3). If the pH is below 6.0, add an appropriate amount of the alkaline agent as described in (A) of the above “pH-adjusting agent” to the solution. If the pH is above 8.5, add an appropriate amount of the acidic agent as described in (B) of the above “pH-adjusting agent” to the solution. Cloudiness is observed when the pH of the solution is below 6. The solution will become clear after the pH adjustment to between 6.0-8.5.

[6] = white to off-white crystalline substance; cited from earlier work

## O=C(c1ccccc1)c1ccc2n1CCC2C(=O)O (racemic) [ketorolac, (±)-5-benzoyl-2,3-dihydro-1H-pyrrolizine-1-carboxylic acid]
[1]; route not given
  time at which serum concentration reaches a peak: about 2.9±1.8 minutes
[2]
  water solubility: low

## NC(CO)(CO)CO.O=C(c1ccccc1)c1ccc2n1CCC2C(=O)O (stereo not shown) [ketorolac tromethamine]
[3]
  pKa: 3.5
[1]; geriatric patients
  terminal elimination half-life: 4.7 to 8.6 h
[1]; young adults
  terminal elimination half-life: 3.8 to 6.3 h
[2]
  water solubility: enhanced
[4]; after the intramuscular administration
  onset of the anti-inflammatory, analgesic, and antipyretic effects: 30 to 60 min
[4]; after the intravenous or intramuscular administrations
  time to maximum effect: 1 to 2 h
[4]; in vivo
  duration of therapeutic effects: 4 to 6 h
Plasma protein
  plasma protein bound: 99%
[5]; pH higher than 8.5
  behaviour of solution: color of the solutions changes
[5]; pH lower than 6
  behaviour of solution: precipitates
[6]
  behaviour under prolonged exposure to light: discolors
